From patent US8877748B2, “Heterocyclic fused anthraquinone derivatives, manufacturing method and pharmaceutical composition using thereof” (National Defense Medical Center, priority 2012, dated 2014)

Tests used:
[1] = tested on: SN12C; assay: NCI one-dose screening, renal cancer SN12C; format: cell-based, human; conditions: 10 μM
[2] = tested on: OVCAR-5; assay: NCI one-dose screening, ovarian cancer OVCAR-5; format: cell-based, human; conditions: 10 μM
[3] = tested on: MALME-3M; assay: NCI one-dose screening, melanoma MALME-3M; format: cell-based, human; conditions: 10 μM
[4] = tested on: T-47D; assay: NCI one-dose screening, breast cancer T-47D; format: cell-based, human; conditions: 10 μM
[5] = tested on: MOLT-4; assay: NCI one-dose screening, leukemia MOLT-4; format: cell-based, human; conditions: 10 μM
[6] = tested on: UO-31; assay: NCI one-dose screening, renal cancer UO-31; format: cell-based, human; conditions: 10 μM
[7] = tested on: PC-3 prostate cancer cell line; assay: SRB assay cell viability, PC-3 prostate cancer cell line; format: cell-based, human; conditions: PC-3 prostate cancer cell line, Table II prints no unit, μM printed, read-out: SRB assay: 50% inhibition of cancer cell proliferation of sample concentration (IC50) of PC-3 prostate cancer cell line
[8] = tested on: SK-MEL-5; assay: NCI one-dose screening, melanoma SK-MEL-5; format: cell-based, human; conditions: 10 μM
[9] = tested on: OVCAR-4; assay: NCI one-dose screening, ovarian cancer OVCAR-4; format: cell-based, human; conditions: 10 μM
[10] = NCI one-dose screening, renal cancer A489; format: cell-based, human; conditions: 10 μM
[11] = tested on: 786-O; assay: NCI one-dose screening, renal cancer 786-O; format: cell-based, human; conditions: 10 μM
[12] = tested on: NCl/ADR-RES; assay: NCI one-dose screening, breast cancer NCl/ADR-RES; format: cell-based, human; conditions: 10 μM; listed under Ovarian cancer
[13] = tested on: NCI-H322M; assay: NCI one-dose screening, non-small cell lung cancer NCI-H322M; format: cell-based, human; conditions: 10 μM; Non-small cell lung cancer
[14] = tested on: OVCAR-3; assay: NCI one-dose screening, ovarian cancer OVCAR-3; format: cell-based, human; conditions: 10 μM
[15] = tested on: HCC-2998; assay: NCI one-dose screening, colon cancer HCC-2998; format: cell-based, human; conditions: 10 μM
[16] = tested on: TK-10; assay: NCI one-dose screening, renal cancer TK-10; format: cell-based, human; conditions: 10 μM
[17] = tested on: KM12; assay: NCI one-dose screening, colon cancer KM12; format: cell-based, human; conditions: 10 μM
[18] = tested on: human tumor cell lines; assay: NCI one-dose screening, Mean / Delta / Range of growth percent over all tested cell lines; format: cell-based; conditions: 10 μM
[19] = tested on: HS 578-T; assay: NCI one-dose screening, breast cancer HS 578-T; format: cell-based, human; conditions: 10 μM; Breast cancer
[20] = tested on: SR; assay: NCI one-dose screening, leukemia SR; format: cell-based, human; conditions: 10 μM
[21] = tested on: PRMI-8226 cell line; assay: NCI one-dose screening, leukemia PRMI-8226; format: cell-based, human; conditions: 10 μM
[22] = tested on: MDA-MB-468; assay: NCI one-dose screening, breast cancer MDA-MB-468; format: cell-based, human; conditions: 10 μM
[23] = tested on: MDA, -MB-435; assay: NCI one-dose screening, breast cancer MDA, -MB-435; format: cell-based, human; conditions: 10 μM; listed under Melanoma
[24] = tested on: HOP-92; assay: NCI one-dose screening, non-small cell lung cancer HOP-92; format: cell-based, human; conditions: 10 μM
[25] = tested on: OVCAR-8; assay: NCI one-dose screening, ovarian cancer OVCAR-8; format: cell-based, human; conditions: 10 μM
[26] = tested on: SF-268; assay: NCI one-dose screening, CNS cancer SF-268; format: cell-based, human; conditions: 10 μM
[27] = tested on: K562cell line; assay: NCI one-dose screening, leukemia K562; format: cell-based, human; conditions: 10 μM
[28] = tested on: U251; assay: NCI one-dose screening, CNS cancer U251; format: cell-based, human; conditions: 10 μM
[29] = tested on: RXF, 393; assay: NCI one-dose screening, renal cancer RXF, 393; format: cell-based, human; conditions: 10 μM
[30] = tested on: HOP-62; assay: NCI one-dose screening, non-small cell lung cancer HOP-62; format: cell-based, human; conditions: 10 μM
[31] = tested on: SNB-19; assay: NCI one-dose screening, CNS cancer SNB-19; format: cell-based, human; conditions: 10 μM
[32] = tested on: HCT-15; assay: NCI one-dose screening, colon cancer HCT-15; format: cell-based, human; conditions: 10 μM
[33] = tested on: CAKI-1; assay: NCI one-dose screening, renal cancer CAKI-1; format: cell-based, human; conditions: 10 μM
[34] = tested on: MDA-MB-231/ATCC; assay: NCI one-dose screening, breast cancer MDA-MB-231/ATCC; format: cell-based, human; conditions: 10 μM
[35] = tested on: COLO 205; assay: NCI one-dose screening, colon cancer COLO 205; format: cell-based, human; conditions: 10 μM
[36] = tested on: LOX IMVI; assay: NCI one-dose screening, melanoma LOX IMVI; format: cell-based, human; conditions: 10 μM
[37] = tested on: SK-MEL-28; assay: NCI one-dose screening, melanoma SK-MEL-28; format: cell-based, human; conditions: 10 μM
[38] = tested on: HCT-116; assay: NCI one-dose screening, colon cancer HCT-116; format: cell-based, human; conditions: 10 μM
[39] = tested on: UACC-62; assay: NCI one-dose screening, melanoma UACC-62; format: cell-based, human; conditions: 10 μM
[40] = tested on: NCI-H460; assay: NCI one-dose screening, non-small cell lung cancer NCI-H460; format: cell-based, human; conditions: 10 μM
[41] = tested on: MCF7; assay: NCI one-dose screening, breast cancer MCF7; format: cell-based, human; conditions: 10 μM
[42] = tested on: DU145; assay: NCI one-dose screening, prostate cancer DU145; format: cell-based, human; conditions: 10 μM
[43] = tested on: M14; assay: NCI one-dose screening, melanoma M14; format: cell-based, human; conditions: 10 μM
[44] = tested on: A549/ATCC; assay: NCI one-dose screening, non-small cell lung cancer A549/ATCC; format: cell-based, human; conditions: 10 μM
[45] = tested on: SK-OV-3; assay: NCI one-dose screening, ovarian cancer SK-OV-3; format: cell-based, human; conditions: 10 μM
[46] = tested on: CCRF-CEM; assay: NCI screening platform one-dose single concentration screening, leukemia CCRF-CEM; format: cell-based, human; conditions: 10 μM
[47] = tested on: UACC-257; assay: NCI one-dose screening, melanoma UACC-257; format: cell-based, human; conditions: 10 μM
[48] = tested on: NCI-H522; assay: NCI one-dose screening, non-small cell lung cancer NCI-H522; format: cell-based, human; conditions: 10 μM
[49] = tested on: ACHN; assay: NCI one-dose screening, renal cancer ACHN; format: cell-based, human; conditions: 10 μM
[50] = tested on: SF-295; assay: NCI one-dose screening, CNS cancer SF-295; format: cell-based, human; conditions: 10 μM
[51] = tested on: NCI-H23; assay: NCI one-dose screening, non-small cell lung cancer NCI-H23; format: cell-based, human; conditions: 10 μM
[52] = tested on: HL-60, TB; assay: NCI one-dose screening, leukemia HL-60, TB; format: cell-based, human; conditions: 10 μM
[53] = tested on: SK-MEL-2; assay: NCI one-dose screening, melanoma SK-MEL-2; format: cell-based, human; conditions: 10 μM
[54] = tested on: HT29; assay: NCI one-dose screening, colon cancer HT29; format: cell-based, human; conditions: 10 μM
[55] = tested on: IGROV1; assay: NCI one-dose screening, ovarian cancer IGROV1; format: cell-based, human; conditions: 10 μM
[56] = tested on: SF-539; assay: NCI one-dose screening, CNS cancer SF-539; format: cell-based, human; conditions: 10 μM
[57] = tested on: SNB-75; assay: NCI one-dose screening, CNS cancer SNB-75; format: cell-based, human; conditions: 10 μM

Compound: O=C1c2ccccc2C(=O)c2c1ccc1nsnc21 [C1, Anthraquinone[2,1-c][1,2,5]thiadiazol-6,11-dione]
- Growth Percent SN12C [1]: −73.27%
- Growth Percent OVCAR-5 [2]: −20.07%
- Growth Percent MALME-3M [3]: −71.64%
- Growth Percent T-47D [4]: −45.52%
- Growth Percent MOLT-4 [5]: −40.09%
- Growth Percent UO-31 [6]: −79.30%
- IC50 [7]: 2.5 µM
- Growth Percent SK-MEL-5 [8]: 8.52%
- Growth Percent OVCAR-4 [9]: −94.43%
- Growth Percent A498 [10]: 130.09%
- Growth Percent 786-0 [11]: −25.98%
- Growth Percent NCI/ADR-RES [12]: −2.53%
- Growth Percent NCI-H322M [13]: 16.07%
- Growth Percent OVCAR-3 [14]: −15.47%
- Growth Percent HCC-2998 [15]: −0.74%
- Growth Percent TK-10 [16]: 96.99%
- Growth Percent KM12 [17]: 98.60%
- Growth Percent Delta ([18]; delta over all cell lines): 102.68%
- Growth Percent Mean ([18]; mean over all cell lines): 2.68%
- Growth Percent Range ([18]; range over all cell lines): 230.09%
- Growth Percent HS 578T [19]: 7.40%
- Growth Percent SR [20]: 4.96%
- Growth Percent RPMI-8226 [21]: −27.97%
- Growth Percent MDA-MB-468 [22]: −73.17%
- Growth Percent MDA-MB-435 [23]: −87.88%
- Growth Percent HOP-92 [24]: −100.00%
- Growth Percent OVCAR-8 [25]: −10.07%
- Growth Percent SF-268 [26]: 16.29%
- Growth Percent K562 [27]: 49.61%
- Growth Percent U251 [28]: −89.26%
- Growth Percent RXF 393 [29]: 20.11%
- Growth Percent HOP-62 [30]: 103.18%
- Growth Percent SNB-19 [31]: 78.98%
- Growth Percent HCT-15 [32]: 1.48%
- Growth Percent CAKI-1 [33]: 1.97%
- Growth Percent MDA-MB-231/ATCC [34]: −17.33%
- Growth Percent COLO 205 [35]: 111.54%
- Growth Percent LOX IMVI [36]: −50.63%
- Growth Percent SK-MEL-28 [37]: 15.47%
- Growth Percent HCT-116 [38]: −50.00%
- Growth Percent UACC-62 [39]: −82.32%
- Growth Percent NCI-H460 [40]: 125.82%
- Growth Percent MCF7 [41]: −50.74%
- Growth Percent DU145 [42]: 40.76%
- Growth Percent M14 [43]: 74.54%
- Growth Percent A549/ATCC [44]: 104.19%
- Growth Percent SK-OV-3 [45]: 100.70%
- Growth Percent CCRF-CEM [46]: −30.81%
- Growth Percent UACC-257 [47]: −83.07%
- Growth Percent NCI-H522 [48]: 77.41%
- Growth Percent ACHN [49]: −94.31%
- Growth Percent SF-295 [50]: 126.17%
- Growth Percent NCI-H23 [51]: 97.80%
- Growth Percent HL-60(TB) [52]: −21.77%
- Growth Percent SK-MEL-2 [53]: −73.16%
- Growth Percent HT29 [54]: 116.95%
- Growth Percent IGROV1 [55]: −88.34%
- Growth Percent SF-539 [56]: −47.11%
- Growth Percent SNB-75 [57]: 79.03%
